Laboratory results published in ChEMBL document CHEMBL1201862, “PubChem BioAssay data set” (2004).
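Test compounds were applied to cells in 96-well plates for 48 hours at 5 doses. Abbreviation: GI50, concentration required for 50% inhibition of growth.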 Calls of active or inactive are those of the source. Rule as the data show it: active = GI50 up to about 1.1 µM and inactive = higher.

Tests used:
Assay in all cases: NCI-60 cell line screen, 48 h
[1] = test system: SW-620
[2] = test system: UO-31
[3] = test system: OVCAR-8
[4] = test system: K562
[5] = test system: NCI-H460
[6] = test system: SF-295
[7] = test system: OVCAR-5
[8] = test system: KM12
[9] = test system: SNB-19
[10] = test system: PC-3
[11] = test system: MCF7
[12] = test system: SF-268
[13] = test system: HL-60
[14] = test system: HCT-116
[15] = test system: NCI-H226
[16] = test system: UACC-62
[17] = test system: U-251
[18] = test system: OVCAR-3
[19] = test system: HCT-15
[20] = test system: HOP-62
[21] = test system: NCI-H23
[22] = test system: IGROV-1
[23] = test system: DU-145
[24] = test system: MDA-N
[25] = test system: SK-MEL-28
[26] = test system: OVCAR-4
[27] = test system: 786-0
[28] = test system: SN12C
[29] = test system: HCC 2998
[30] = test system: CAKI-1
[31] = test system: CCRF-CEM
[32] = test system: TK-10
[33] = test system: A498
[34] = test system: Malme-3M
[35] = test system: UACC-257
[36] = test system: LOX IMVI
[37] = test system: RPMI-8226
[38] = test system: SK-MEL-5
[39] = test system: MDA-MB-435
[40] = test system: NCI/ADR-RES
[41] = test system: BT-549
[42] = test system: MOLT-4
[43] = test system: ACHN
[44] = test system: Hs-578T
[45] = test system: HT-29
[46] = test system: SK-OV-3
[47] = test system: M14
[48] = test system: HOP-92
[49] = test system: SNB-75
[50] = test system: NCI-H522
[51] = test system: A549
[52] = test system: T47D
[53] = test system: COLO 205
[54] = test system: RXF 393
[55] = test system: EKVX
[56] = test system: SR
[57] = test system: MDA-MB-231
[58] = test system: SF-539

SMILES: Cc1c(Cl)c(S(N)(=O)=O)cc(S(N)(=O)=O)c1NC(=O)c1ccc(Cl)cc1
- GI50 [1]: > 100 µM (inactive)
- GI50 [2]: > 100 µM (inactive)
- GI50 [3]: > 100 µM (inactive)
- GI50 [4]: > 100 µM (inactive)
- GI50 [5]: > 100 µM (inactive)
- GI50 [6]: > 100 µM (inactive)
- GI50 [7]: > 100 µM (inactive)
- GI50 [8]: > 100 µM (inactive)
- GI50 [9]: > 100 µM (inactive)
- GI50 [10]: > 100 µM (inactive)
- GI50 [11]: > 100 µM (inactive)
- GI50 [12]: > 100 µM (inactive)
- GI50 [13]: > 100 µM (inactive)
- GI50 [14]: > 100 µM (inactive)
- GI50 [15]: > 100 µM (inactive)
- GI50 [16]: > 100 µM (inactive)
- GI50 [17]: > 100 µM (inactive)
- GI50 [18]: > 100 µM (inactive)
- GI50 [19]: > 100 µM
- GI50 [20]: > 100 µM (inactive)
- GI50 [21]: > 100 µM (inactive)
- GI50 [22]: > 100 µM (inactive)
- GI50 [23]: > 100 µM (inactive)
- GI50 [24]: > 100 µM (inactive)
- GI50 [25]: > 100 µM (inactive)
- GI50 [26]: > 100 µM (inactive)
- GI50 [27]: > 100 µM (inactive)
- GI50 [28]: > 100 µM (inactive)
- GI50 [29]: > 100 µM (inactive)
- GI50 [30]: > 100 µM (inactive)
- GI50 [31]: > 100 µM (inactive)
- GI50 [32]: > 100 µM (inactive)
- GI50 [33]: > 100 µM (inactive)
- GI50 [34]: > 100 µM (inactive)
- GI50 [35]: > 100 µM (inactive)
- GI50 [36]: > 100 µM (inactive)
- GI50 [37]: > 100 µM (inactive)
- GI50 [38]: > 100 µM (inactive)
- GI50 [39]: > 100 µM (inactive)
- GI50 [40]: > 100 µM (inactive)
- GI50 [41]: > 100 µM (inactive)
- GI50 [42]: > 100 µM (inactive)
- GI50 [43]: > 100 µM (inactive)
- GI50 [44]: > 100 µM (inactive)
- GI50 [45]: > 100 µM (inactive)
- GI50 [46]: > 100 µM (inactive)
- GI50 [47]: > 100 µM (inactive)
- GI50 [48]: > 100 µM (inactive)
- GI50 [49]: > 100 µM (inactive)
- GI50 [50]: > 100 µM (inactive)
- GI50 [51]: > 100 µM (inactive)
- GI50 [52]: > 100 µM (inactive)
- GI50 [53]: > 100 µM (inactive)
- GI50 [54]: > 100 µM (inactive)

SMILES: CCOC(=N)n1c(=O)n(C2=NCCN2)c2ccccc21
- GI50 [55]: > 100 µM (inactive)
- GI50 [1]: > 100 µM (inactive)
- GI50 [2]: > 100 µM (inactive)
- GI50 [3]: > 100 µM (inactive)
- GI50 [4]: > 100 µM (inactive)
- GI50 [5]: > 100 µM (inactive)
- GI50 [6]: > 100 µM (inactive)
- GI50 [7]: > 100 µM (inactive)
- GI50 [8]: > 100 µM (inactive)
- GI50 [9]: > 100 µM (inactive)
- GI50 [10]: > 100 µM (inactive)
- GI50 [11]: > 100 µM (inactive)
- GI50 [12]: > 100 µM (inactive)
- GI50 [13]: > 100 µM (inactive)
- GI50 [14]: > 100 µM (inactive)
- GI50 [15]: > 100 µM (inactive)
- GI50 [16]: > 100 µM (inactive)
- GI50 [17]: > 100 µM (inactive)
- GI50 [18]: > 100 µM (inactive)
- GI50 [56]: > 100 µM (inactive)
- GI50 [19]: > 100 µM
- GI50 [20]: > 100 µM (inactive)
- GI50 [21]: > 100 µM (inactive)
- GI50 [22]: > 100 µM (inactive)
- GI50 [23]: > 100 µM (inactive)
- GI50 [24]: > 100 µM (inactive)
- GI50 [25]: > 100 µM (inactive)
- GI50 [26]: > 100 µM (inactive)
- GI50 [27]: > 100 µM (inactive)
- GI50 [57]: > 100 µM (inactive)
- GI50 [28]: > 100 µM (inactive)
- GI50 [29]: > 100 µM (inactive)
- GI50 [30]: > 100 µM (inactive)
- GI50 [31]: > 100 µM (inactive)
- GI50 [32]: > 100 µM (inactive)
- GI50 [33]: > 100 µM (inactive)
- GI50 [34]: > 100 µM (inactive)
- GI50 [35]: > 100 µM (inactive)
- GI50 [36]: > 100 µM (inactive)
- GI50 [39]: > 100 µM (inactive)
- GI50 [40]: > 100 µM (inactive)
- GI50 [41]: > 100 µM (inactive)
- GI50 [42]: > 100 µM (inactive)
- GI50 [58]: > 100 µM (inactive)
- GI50 [43]: > 100 µM (inactive)
- GI50 [45]: > 100 µM (inactive)
- GI50 [46]: > 100 µM (inactive)
- GI50 [47]: > 100 µM (inactive)
- GI50 [48]: > 100 µM (inactive)
- GI50 [49]: 31.2 µM (inactive)
- GI50 [50]: > 100 µM (inactive)
- GI50 [51]: > 100 µM (inactive)
- GI50 [52]: > 100 µM (inactive)
- GI50 [53]: > 100 µM (inactive)
- GI50 [54]: > 100 µM (inactive)
